The results in this text go back to patent US12371428B2 (Exelixis, Inc., priority 2019, dated 2025).

pIC50: −log10 of the molar value. Where a name gives a salt, the structure may show the parent alone. Read-outs that look alike come from different tables or passages of the source.

For test [1], the target named is Mer (phospho-Mer, MERTK-transfected 293A cells) (Homo sapiens (Human), UniProt Q12866). In words: Mer autophosphorylation ELISA in transient transfected 293A cells (Example H). The format is cell-based. To be noted: cellular activity; Mer autophosphorylation ELISA in transient transfected 293A cells. The procedure, abridged:
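IC50 from phospho-Mer ELISA of MERTK-transfected 293A cell lysates after 1 h treatment with serially diluted compound in serum-free medium.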
A general note: An ELISA detects its analyte on a solid surface through an enzyme-linked reagent.

The target in test [2] is Met (phospho-Met, HGF-stimulated PC-3 prostate cancer cells) (Homo sapiens (Human), UniProt P08581). In words: Met autophosphorylation ELISA in PC-3 cells (Example F). The format is cell-based. The following applies: cellular activity; Met autophosphorylation ELISA in PC-3 cells; read-out: c-Met IC50. The method in brief: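 Serum-starved (3 h) PC-3 cells were treated 1 h with compounds (8-point curve, 0.3% DMSO), then stimulated with 100 ng/mL human HGF for 10 min. Lysate phospho-Met (panTyr) was measured by sandwich ELISA, normalised to DMSO and reference-inhibitor controls. IC50 came from 4-parameter logistic fit.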
Chain of Met (phospho-Met, HGF-stimulated PC-3 prostate cancer cells) (P08581 25-1390): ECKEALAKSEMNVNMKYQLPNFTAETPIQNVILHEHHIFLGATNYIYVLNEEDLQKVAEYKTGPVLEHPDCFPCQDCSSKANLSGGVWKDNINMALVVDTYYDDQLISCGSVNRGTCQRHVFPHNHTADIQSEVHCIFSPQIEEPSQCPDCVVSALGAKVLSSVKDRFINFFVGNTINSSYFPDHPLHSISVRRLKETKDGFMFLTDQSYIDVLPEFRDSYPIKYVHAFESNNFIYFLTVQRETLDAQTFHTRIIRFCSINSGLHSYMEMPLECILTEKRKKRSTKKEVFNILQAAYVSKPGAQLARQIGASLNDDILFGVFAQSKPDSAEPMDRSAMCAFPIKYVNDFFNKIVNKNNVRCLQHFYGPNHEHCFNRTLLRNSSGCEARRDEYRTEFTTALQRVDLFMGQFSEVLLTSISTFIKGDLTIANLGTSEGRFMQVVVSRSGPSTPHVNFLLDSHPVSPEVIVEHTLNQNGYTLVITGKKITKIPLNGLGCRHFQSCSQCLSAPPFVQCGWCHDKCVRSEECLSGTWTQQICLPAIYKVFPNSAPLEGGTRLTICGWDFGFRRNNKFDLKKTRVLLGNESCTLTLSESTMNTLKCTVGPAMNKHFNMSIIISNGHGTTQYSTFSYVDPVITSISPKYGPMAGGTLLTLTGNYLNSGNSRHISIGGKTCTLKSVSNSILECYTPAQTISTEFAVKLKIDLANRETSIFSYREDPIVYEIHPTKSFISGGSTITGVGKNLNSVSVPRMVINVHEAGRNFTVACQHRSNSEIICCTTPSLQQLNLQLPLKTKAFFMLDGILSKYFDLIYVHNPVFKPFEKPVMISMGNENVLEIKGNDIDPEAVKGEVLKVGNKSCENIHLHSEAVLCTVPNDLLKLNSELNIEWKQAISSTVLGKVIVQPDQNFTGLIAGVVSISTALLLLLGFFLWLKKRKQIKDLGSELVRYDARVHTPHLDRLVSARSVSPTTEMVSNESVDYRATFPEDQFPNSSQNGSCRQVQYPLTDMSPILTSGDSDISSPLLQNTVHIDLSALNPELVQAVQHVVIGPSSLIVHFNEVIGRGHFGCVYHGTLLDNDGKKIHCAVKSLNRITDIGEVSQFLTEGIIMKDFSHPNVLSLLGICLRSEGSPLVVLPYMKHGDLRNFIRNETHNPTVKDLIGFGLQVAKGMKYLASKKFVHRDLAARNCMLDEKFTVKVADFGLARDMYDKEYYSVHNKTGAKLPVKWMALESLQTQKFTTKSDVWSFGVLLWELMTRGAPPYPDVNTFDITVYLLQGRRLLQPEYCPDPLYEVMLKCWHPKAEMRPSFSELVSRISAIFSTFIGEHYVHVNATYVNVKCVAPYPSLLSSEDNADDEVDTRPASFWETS

Test [3] deals with Human MET (residues 956-1390) (Homo sapiens (Human), UniProt P08581). In words: Human Met kinase assay, HTRF KinEase (Example D-2). The class given is biochemical. The following applies: read-out: c-Met IC50. As to the method: (§1) Kinase activity and compound inhibition were also investigated using the HTRF® KinEase assay (Cisbio Cat #62TKOPEB) per manufacturer's instructions. In short, compounds were delivered in 300 nL volumes at 10 different concentrations in DMSO (3% final) to empty 384-well assay plates (Corning cat #3824). A mixture of enzyme, […] biotynlated peptide substrate, and buffer in 10 μL volume was added. The assay was started upon the addition of ATP (at Km). The 10 μL reaction was incubated at room temperature. The reaction was stopped upon the addition of detection buffer containing streptavidin-XL665 ([…]) and TK antibody-Eu3+([…]). After a 60 min incubation at room temperature, the fluorescence at 665 nm and 620 nm was read on an Envision microplate reader (Perkin Elmer).
Chain of Human MET (residues 956-1390) (P08581 956-1390): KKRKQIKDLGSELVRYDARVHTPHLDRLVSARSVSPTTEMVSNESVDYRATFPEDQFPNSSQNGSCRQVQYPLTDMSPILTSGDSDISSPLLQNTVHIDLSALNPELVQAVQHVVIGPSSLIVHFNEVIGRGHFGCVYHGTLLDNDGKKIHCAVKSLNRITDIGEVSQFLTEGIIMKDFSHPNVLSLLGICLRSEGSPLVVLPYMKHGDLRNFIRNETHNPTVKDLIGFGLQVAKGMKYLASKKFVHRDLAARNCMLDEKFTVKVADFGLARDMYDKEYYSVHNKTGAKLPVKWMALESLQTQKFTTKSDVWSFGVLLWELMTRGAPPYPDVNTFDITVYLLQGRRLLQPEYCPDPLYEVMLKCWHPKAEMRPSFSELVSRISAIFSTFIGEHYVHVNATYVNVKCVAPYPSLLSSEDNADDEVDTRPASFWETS
(§2) Kinase activity normalized to DMSO (100% activity) and reference compound at […] and (0% activity) was calculated using the fluorescence ratio […]. IC50 values were calculated by nonlinear regression analysis using a 4-parameter logistic curve fit in ActivityBase XE (IDBS).
Example D-2: Human MET (residues 956-1390; CarnaBio, 0.1 ng/well) was also incubated with enzymatic buffer (Cisbio) supplemented with 5 mM MgCl2, 1 mM DTT and 1 mM MnCl2. The mixture was added to the pre-plated compounds. […] The reaction was incubated at room temperature for 40 min and stopped upon the addition of SA-XL665 and TK-antibody both diluted in EDTA-containing kinase detection buffer (Cisbio). The kinase activity was calculated as stated above and the IC50 values were reported.
For orientation: In TR-FRET formats the signal depends on donor and acceptor labels being close together.

Test [4] addresses Human MER (residues 528-999) (Homo sapiens (Human), UniProt Q12866). In words: Human Mer kinase assay, HTRF KinEase (Example C-2). The class given is biochemical. As to the method: as §1, §2
Example C-2: Human MER (residues 528-999; CarnaBio, 1 ng/well) was also incubated with enzymatic buffer (Cisbio) supplemented with 5 mM MgCl2 and 1 mM DTT. The mixture was added to the pre-plated compounds. The reaction was initiated upon addition of ATP at Km (40 μM). The reaction was incubated at room temperature for 60 min and stopped upon the addition of SA-XL665 and TK-antibody both diluted in EDTA-containing kinase detection buffer (Cisbio). The kinase activity was calculated as stated above and the IC50 values were reported.

For test [5], the target named is KDR (phospho-KDR, VEGF165-stimulated HUVEC cells) (Homo sapiens (Human), UniProt P35968). In words: KDR autophosphorylation ELISA in HUVEC cells (Example G). The class given is cell-based. To be noted: cellular activity; KDR autophosphorylation ELISA in HUVEC cells. The procedure, abridged:
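First, endothelial cells were cultured a day, then kept without serum for another day. Next came 1 h with serially diluted compound, a brief 5 min VEGF165 stimulus (100 ng/mL), rapid lysis, and ELISA detection of receptor phosphorylation relative to stimulated and non-stimulated controls.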

The mark [6] stands for this setting: protocol of Example D-2 (other compounds).
Setting [7] is: protocol of Example C-2 (other compounds).

Chain of Mer (phospho-Mer, MERTK-transfected 293A cells) (Q12866 21-999): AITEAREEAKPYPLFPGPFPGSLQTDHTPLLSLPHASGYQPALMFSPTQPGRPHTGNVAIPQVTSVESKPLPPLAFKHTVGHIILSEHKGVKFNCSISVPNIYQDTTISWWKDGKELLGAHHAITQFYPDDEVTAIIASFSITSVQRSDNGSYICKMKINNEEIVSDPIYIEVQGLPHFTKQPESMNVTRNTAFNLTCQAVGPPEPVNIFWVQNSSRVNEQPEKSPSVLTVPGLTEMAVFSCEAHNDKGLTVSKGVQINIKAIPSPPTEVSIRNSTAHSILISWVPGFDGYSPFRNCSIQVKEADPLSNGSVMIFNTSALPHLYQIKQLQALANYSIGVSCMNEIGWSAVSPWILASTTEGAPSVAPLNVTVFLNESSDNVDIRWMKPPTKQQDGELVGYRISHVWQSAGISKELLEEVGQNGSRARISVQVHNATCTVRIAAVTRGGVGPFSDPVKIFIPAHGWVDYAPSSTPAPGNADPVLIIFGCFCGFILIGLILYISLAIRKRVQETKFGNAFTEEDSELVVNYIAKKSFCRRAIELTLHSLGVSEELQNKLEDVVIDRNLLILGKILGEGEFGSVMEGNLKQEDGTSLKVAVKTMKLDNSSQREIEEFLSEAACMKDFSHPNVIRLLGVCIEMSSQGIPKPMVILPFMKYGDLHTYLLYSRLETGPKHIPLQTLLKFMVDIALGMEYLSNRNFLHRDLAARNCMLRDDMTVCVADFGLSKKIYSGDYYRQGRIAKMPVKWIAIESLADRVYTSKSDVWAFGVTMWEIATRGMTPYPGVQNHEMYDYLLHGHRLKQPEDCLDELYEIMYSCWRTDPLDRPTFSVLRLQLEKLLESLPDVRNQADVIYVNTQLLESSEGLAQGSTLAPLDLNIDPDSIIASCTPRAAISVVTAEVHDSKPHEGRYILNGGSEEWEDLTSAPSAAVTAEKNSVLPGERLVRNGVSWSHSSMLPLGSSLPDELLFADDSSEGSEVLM
Chain of KDR (phospho-KDR, VEGF165-stimulated HUVEC cells) (P35968 20-1356): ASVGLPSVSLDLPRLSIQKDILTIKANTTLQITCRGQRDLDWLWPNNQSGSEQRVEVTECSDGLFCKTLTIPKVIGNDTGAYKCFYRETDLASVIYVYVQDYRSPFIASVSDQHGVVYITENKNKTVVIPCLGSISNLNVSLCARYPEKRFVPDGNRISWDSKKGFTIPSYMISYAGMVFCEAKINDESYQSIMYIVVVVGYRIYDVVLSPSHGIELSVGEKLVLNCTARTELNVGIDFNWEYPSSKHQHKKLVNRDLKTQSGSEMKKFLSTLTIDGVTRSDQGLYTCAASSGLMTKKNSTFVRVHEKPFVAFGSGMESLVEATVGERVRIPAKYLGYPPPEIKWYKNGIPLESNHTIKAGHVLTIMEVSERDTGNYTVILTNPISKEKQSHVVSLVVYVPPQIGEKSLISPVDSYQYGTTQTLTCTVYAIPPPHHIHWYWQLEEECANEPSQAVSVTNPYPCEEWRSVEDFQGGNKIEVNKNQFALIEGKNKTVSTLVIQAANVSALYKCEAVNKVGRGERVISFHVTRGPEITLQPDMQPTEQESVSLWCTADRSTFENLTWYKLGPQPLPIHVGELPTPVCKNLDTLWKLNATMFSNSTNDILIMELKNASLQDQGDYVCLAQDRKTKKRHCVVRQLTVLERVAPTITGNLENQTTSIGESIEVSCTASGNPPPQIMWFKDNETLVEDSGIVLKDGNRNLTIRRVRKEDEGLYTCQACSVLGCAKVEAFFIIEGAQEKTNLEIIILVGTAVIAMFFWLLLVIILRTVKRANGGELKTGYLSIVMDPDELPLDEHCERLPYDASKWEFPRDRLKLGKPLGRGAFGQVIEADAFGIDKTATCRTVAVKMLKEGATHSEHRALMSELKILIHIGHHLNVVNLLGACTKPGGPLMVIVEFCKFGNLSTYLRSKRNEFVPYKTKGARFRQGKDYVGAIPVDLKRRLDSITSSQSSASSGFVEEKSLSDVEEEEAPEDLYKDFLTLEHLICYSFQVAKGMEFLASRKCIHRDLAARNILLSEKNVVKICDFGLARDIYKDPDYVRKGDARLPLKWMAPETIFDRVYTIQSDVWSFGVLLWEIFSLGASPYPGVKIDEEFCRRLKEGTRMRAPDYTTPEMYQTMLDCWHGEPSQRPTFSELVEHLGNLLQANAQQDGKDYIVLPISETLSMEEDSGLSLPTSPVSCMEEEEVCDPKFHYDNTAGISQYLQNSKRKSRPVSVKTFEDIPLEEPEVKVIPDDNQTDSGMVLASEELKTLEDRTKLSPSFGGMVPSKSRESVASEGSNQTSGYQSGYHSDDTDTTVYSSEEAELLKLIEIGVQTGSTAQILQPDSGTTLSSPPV
Chain of Human MER (residues 528-999) (Q12866 528-999): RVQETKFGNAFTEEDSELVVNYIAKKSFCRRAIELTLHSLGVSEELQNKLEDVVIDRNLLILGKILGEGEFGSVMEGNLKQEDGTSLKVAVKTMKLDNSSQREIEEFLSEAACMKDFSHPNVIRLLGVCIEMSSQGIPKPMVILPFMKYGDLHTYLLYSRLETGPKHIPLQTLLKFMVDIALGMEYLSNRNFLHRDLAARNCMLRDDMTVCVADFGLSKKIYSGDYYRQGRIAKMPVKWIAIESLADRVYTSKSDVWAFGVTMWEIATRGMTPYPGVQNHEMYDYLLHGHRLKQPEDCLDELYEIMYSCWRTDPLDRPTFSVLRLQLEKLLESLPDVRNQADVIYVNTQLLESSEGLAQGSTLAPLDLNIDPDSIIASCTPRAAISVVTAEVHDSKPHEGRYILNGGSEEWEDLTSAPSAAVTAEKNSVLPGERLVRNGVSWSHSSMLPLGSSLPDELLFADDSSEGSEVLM

In the case of `COc1nc2c(Oc3ccc(NC(=O)c4cn(C(C)C)c(C)c(-c5ccc(F)cc5)c4=O)cc3F)ccnc2cc1-c1cccnc1` [Compound 606, N-[3-Fluoro-4-[(6-methoxy-7-pyridin-3-yl-1,5-naphthyridin-4-yl)oxy]phenyl]-5-(4-fluorophenyl)-6-methyl-4-oxo-1-propan-2-ylpyridine-3-carboxamide hydrochloride], the negative-log IC50 (pIC50) (usually the IC50 on a negative log10 scale, so that one unit is a factor of ten) in test [1] was > 7.00; in test [2], > 7.00; in test [3] (protocol of Example D-2) it was > 7.00; in test [4] (protocol of Example C-2), > 7.00; in test [5] it was 6.52 to 7.00.
`COc1cc2nccc(Oc3ccc(NC(=O)c4c5n(cc(-c6ccc(F)cc6)c4=O)CCC5)cc3F)c2nc1OC` [Compound 404, N-[4-[(6,7-dimethoxy-1,5-naphthyridin-4-yl)oxy]-3-fluorophenyl]-6-(4-fluorophenyl)-7-oxo-2,3-dihydro-1H-indolizine-8-carboxamide]: the pIC50 in test [1], in test [2], in test [3] (setting [6]), in test [4] (setting [7]) and in test [5] was > 7.00 throughout.
For `CNn1cc(C(=O)Nc2ccc(Oc3ccnc4cc(OC)c(OC)nc34)c(F)c2)c(=O)c(-c2ccc(F)cc2)c1` [Compound 135, N-[4-[(6,7-Dimethoxy-1,5-naphthyridin-4-yl)oxy]-3-fluorophenyl]-5-(4-fluorophenyl)-1-(methylamino)-4-oxopyridine-3-carboxamide], the pIC50 in test [1], in test [2], in test [3] (setting [6]), in test [4] (setting [7]) and in test [5] was > 7.00 each time.
For the molecule `COc1nc2c(Oc3ccc(NC(=O)c4cn(C(C)C)c(C)c(-c5ccc(F)cc5)c4=O)cc3F)ccnc2cc1-c1cnn(C(F)F)c1` [Compound 609, N-[4-[[7-[1-(Difluoromethyl)pyrazol-4-yl]-6-methoxy-1,5-naphthyridin-4-yl]oxy]-3-fluorophenyl]-5-(4-fluorophenyl)-6-methyl-4-oxo-1-propan-2-ylpyridine-3-carboxamide], the pIC50 in test [1], in test [2], in test [3] (protocol of Example D-2), in test [4] (protocol of Example C-2) and in test [5] was > 7.00 in each case.
Consider `COc1nc2c(Oc3ccc(NC(=O)c4cn(C(C)C)cc(-c5ccc(F)cc5)c4=O)cc3F)ccnc2cc1-c1cnn(C(F)F)c1` [Compound 608, N-[4-[[7-[1-(Difluoromethyl)pyrazol-4-yl]-6-methoxy-1,5-naphthyridin-4-yl]oxy]-3-fluorophenyl]-5-(4-fluorophenyl)-4-oxo-1-propan-2-ylpyridine-3-carboxamide], for which the pIC50 in test [1], in test [2], in test [3] (protocol of Example D-2) and in test [5] was > 7.00 each time.
Take `COc1cc2nccc(Oc3ccc(NC(=O)c4cn(-c5cnn(C)c5)cc(-c5ccc(F)cc5)c4=O)cc3F)c2nc1OC` [Compound 51, N-[4-[(6,7-Dimethoxy-1,5-naphthyridin-4-yl)oxy]-3-fluorophenyl]-5-(4-fluorophenyl)-1-(1-methylpyrazol-4-yl)-4-oxopyridine-3-carboxamide]: the pIC50 in test [1] is > 7.00; in test [2], > 7.00; in test [3] (setting [6]), > 7.00; in test [5], < 6.52.
As for `COc1cc2nccc(Oc3ccc(NC(=O)c4cn(C5CCC5)cc(-c5ccc(F)cc5)c4=O)cc3F)c2nc1OC` [Compound 50, 1-Cyclobutyl-N-[4-[(6,7-dimethoxy-1,5-naphthyridin-4-yl)oxy]-3-fluorophenyl]-5-(4-fluorophenyl)-4-oxopyridine-3-carboxamide], the pIC50 in test [1] was > 7.00; in test [2], > 7.00; in test [3] (setting [6]), > 7.00; in test [5] it was 6.52 to 7.00.
Turning to `Cc1ncc(C(=O)Nc2ccc(Oc3ccnc4cc(Br)cnc34)c(F)c2)c(O)c1-c1ccc(F)cc1` [Compound 133, N-[4-[(7-Bromo-1,5-naphthyridin-4-yl)oxy]-3-fluorophenyl]-5-(4-fluorophenyl)-4-hydroxy-6-methylpyridine-3-carboxamide], the pIC50 in test [1] was 6.52 to 7.00; in test [2], 6.52 to 7.00; in test [3] (setting [6]), > 7.00; in test [5] it was 6.52 to 7.00.
With `COc1cc2nccc(Oc3ccc(NC(=O)c4cn(N(C)C)cc(-c5ccc(F)cc5)c4=O)cc3F)c2nc1OC` [Compound 136, N-[4-[(6,7-Dimethoxy-1,5-naphthyridin-4-yl)oxy]-3-fluorophenyl]-1-(dimethylamino)-5-(4-fluorophenyl)-4-oxopyridine-3-carboxamide], the pIC50 in test [1], in test [2], in test [3] (setting [6]), in test [4] (setting [7]) and in test [5] was > 7.00 throughout.
Take `COc1nc2c(Oc3ccc(NC(=O)c4cnc(C)c(-c5ccc(F)cc5)c4O)cc3F)ccnc2cc1-c1cccnc1` [Compound 604, N-[3-Fluoro-4-[(6-methoxy-7-pyridin-3-yl-1,5-naphthyridin-4-yl)oxy]phenyl]-5-(4-fluorophenyl)-4-hydroxy-6-methylpyridine-3-carboxamide hydrochloride]: the pIC50 in test [1], in test [2], in test [3] (protocol of Example D-2) and in test [5] was > 7.00 each time.
On to `COc1cnc2c(Oc3ccc(NC(=O)c4cnc(C)c(-c5ccc(F)cc5)c4O)cc3)ccnc2c1` [Compound 147, 5-(4-Fluorophenyl)-4-hydroxy-N-[4-[(7-methoxy-1,5-naphthyridin-4-yl)oxy]phenyl]-6-methylpyridine-3-carboxamide], for which the pIC50 in test [1], in test [2], in test [3] (setting [6]), in test [4] (setting [7]) and in test [5] was > 7.00 each time.
Regarding `COc1ccc2nccc(Oc3ccc(NC(=O)c4cn(C(C)C)c(C)c(-c5ccc(F)cc5)c4=O)cc3F)c2n1` [Compound 110, N-[3-Fluoro-4-[(6-methoxy-1,5-naphthyridin-4-yl)oxy]phenyl]-5-(4-fluorophenyl)-6-methyl-4-oxo-1-propan-2-ylpyridine-3-carboxamide], the pIC50 in test [1] is > 7.00; in test [2], > 7.00; in test [3] (setting [6]), > 7.00; in test [4] (setting [7]) it was > 7.00; in test [5], < 6.52.
In the case of `COc1nc2c(Oc3ccc(NC(=O)c4cn(C(C)C)cc(-c5ccc(F)cc5)c4=O)cc3F)ccnc2cc1-c1cccnc1` [Compound 605, N-[3-Fluoro-4-[(6-methoxy-7-pyridin-3-yl-1,5-naphthyridin-4-yl)oxy]phenyl]-5-(4-fluorophenyl)-4-oxo-1-propan-2-ylpyridine-3-carboxamide hydrochloride], the pIC50 in test [1] was > 7.00; in test [2], > 7.00; in test [3] (protocol of Example D-2), > 7.00; in test [4] (protocol of Example C-2) it was > 7.00; in test [5], 6.52 to 7.00.
For the molecule `COc1cc2nccc(Oc3ccc(NC(=O)c4cn(CCn5ccnc5)cc(-c5ccc(F)cc5)c4=O)cc3F)c2nc1OC` [Compound 159, N-[4-[(6,7-Dimethoxy-1,5-naphthyridin-4-yl)oxy]-3-fluorophenyl]-5-(4-fluorophenyl)-1-(2-imidazol-1-ylethyl)-4-oxopyridine-3-carboxamide], the pIC50 was > 7.00 in test [1], 6.52 to 7.00 in test [2], > 7.00 in test [3] (setting [6]) and < 6.52 in test [5].
